Measurements as given in article PMC12703741, “Light-Activated Metal-Dependent Protein Degradation: A Heterobifunctional Ruthenium(II) Photosensitizer Targeting New Delhi Metallo-β-lactamase 1” (Journal of the American Chemical Society, 2025).
Several values for one entry are separate records, joined by “and”; a condition that tells them apart may be missing. Equal values may be shown once. Entries after “also recorded” stand apart in the source; their conditions may differ. Read-outs that look alike come from different tables or passages of the source.

Assays:
[1] = test system: E. coli empty
Procedure: (§1) In parallel, a control set was incubated without compounds for 50 min, followed by incubation with 75 μM meropenem trihydrate for 10 min. Cells were then pelleted, washed, resuspended in water, lysed, and clarified before LC-MS analysis.
(§2) 1.12 LC-MS accumulation assay
(§3) 1.12.1 Bacterial Strains and Growth Conditions:
(§4) Accumulation assay was performed two E. coli K-12 MG1655 strains transfected with pSU18 vector containing NDM-1 expression or an empty vector control. Cell growth was performed in Luria-Bertani (LB) broth (NaCl 10g/L, K2HPO4 6.3 g/L, KH2PO4 1.8 g/L, sodium citrate […]
(§5) 1.12.2 Preparation of Accumulation Assay Samples for LC-MS Analysis:
(§6) Assay was adapted from the work of Geddes et al. and Widya et al.9–11 E. coli MG1655 pSU18 NDM-1 and pSU18 Empty were grown from single colonies at 37 °C with aeration, while shaking at 180 rpm for 18 hours. The overnight suspensions were subcultured (1:100) in fresh LB and incubated to yield an OD600 of 0.55-0.60. The were harvested and pelleted at 3500 × g for 15 minutes at 4 °C. The pellets were washed with Meuller -Hinton II (MHII) broth and pelleted again under the same conditions. The pellets were resuspended in a n adjusted volume of fresh MHII to achieve an OD 600 ≈ 10.0. Shielded from ambient light, cells were incubated with 320 μM of metal complex for 1 hour while shaking at 180 rpm. Separately, another set of cells was incubated under identical conditions without any added metal complex. Cells […]
(§7) incubated with metal complex were maintained incubating under the same conditions for an additional 10 minutes, while the second set of cells was incubated with 75 μM of meropenem trihydrate for 10 minutes. After treatment, 10 μL of each cell suspension was taken and dilution 1:10 PBSA for OD600 viability analysis. A 150 μL aliquot of each cell suspension was layered onto 150 μL of cold silicone oil mixture (1:9, v/v AR20:High temperature silicone oil) and centrifuged at 3500 × g for 1 hour at 4 °C. The aqu eous and oil supernatant were carefully aspirated to isolate the cell pellets, which were resuspended in 50 μL of water and transferred to a fresh microplate. For lysis, a 1:1 (v/v) mixture of acetonitrile and methanol was added to each sample, and the sam ples were freeze thawed at -80 °C for approximately 18 hours.
(§8) Thawed samples were clarified by two rounds of centrifugation at 3500 × g for 1 hour at 4 °C, […]
(§9) External calibration curves were prepared by mixing compound at increasing concentration with extracted cell lysate (prepared in parallel to analyte containing samples) in concentrations […]
(§10) nM were also prepared to assess quantitative accuracy. Samples were submitted to LCMS analysis as biological triplicate using a single calibration curve. […]
(§11) was spiked into each calibration and analyte sampl e as an internal standard.

[2] = test system: E. coli NDM-1
Procedure: as §1, §2, §3, §4, §5, §6, §7, §8, §9, §10, §11

[3] = test system: E. coli NDM-1; remark: listed apart in the source
Procedure: based screening experiments were performed in biological triplicate, each replicate starting
from a new single colony inoculation. Statistical significance was determined using two-way
ANOVA followed by Sidak’s multiple comparison test, with a single pooled variance.
Concentration (MIC) assay
20% glycerol stocks of E. coli MG1655 pSU18 NDM-1 (E. coli NDM-1) and E. coli MG1655
pSU18 empty (E. coli empty) stored at -80 °C were used to streak nutrient agar plates. After
The MHBII culture growing both E. coli strains contained chloramphenicol
as an antibiotic resistance marker (2 µg/mL, equivalent to ¼ MICE. coli for chloramphenicol =
8 µg/mL). The resulting suspensions were each diluted 100 x (15 µL in 1.5 mL) in MHBII with
chloramphenicol (2 µg/mL), and the resultant suspensions were incubated to OD600 = 0.6-1.2
To generate the two-dimensional drug interaction matrix, four 96-well source plates were
prepared. In Source Plates A1-3, the three analytes were subjected to a two-fold serial dilution
across the rows (A to G), maintaining constant concentrations within each row and achieving
a vertical concentration gradient. In parallel, Source Plate B was prepared by diluting
meropenem in a two-fold series across the Columns (9 to 2), generating a horizontal
concentration gradient across the plate. Equal volumes (1 µL) from one of the source plates A
and source plate B were transferred into a 96-well assay plate to establish the checkerboard
layout with a 50X dilution into MHBII (50 μL total volume).
The prepared bacterial cells were diluted to OD600 = 0.01. Each prepared checkerboard plate
was then inoculated with 50 μL per well of bacterial culture in MHBII with ½ MIC of
chloramphenicol (100 μL total volume per well , final OD600 = 0.005). Control wells were
included to account for drug-free growth, sterility, and single-agent gradient exposures. Dark
For the light condition, the
OD600 was measured on a BMG Labtech CLARIOstar plate reader. The MIC is the first value
at which no growth is seen. All E. coli NDM-1 data were averaged from 3 biological replicates,

[4] = biological target: T1, NDM-1 (Klebsiella pneumoniae, UniProt C7C422); details: 450 nm, 20 J cm^-2
T1 sequence (C7C422 31-270 limits assumed): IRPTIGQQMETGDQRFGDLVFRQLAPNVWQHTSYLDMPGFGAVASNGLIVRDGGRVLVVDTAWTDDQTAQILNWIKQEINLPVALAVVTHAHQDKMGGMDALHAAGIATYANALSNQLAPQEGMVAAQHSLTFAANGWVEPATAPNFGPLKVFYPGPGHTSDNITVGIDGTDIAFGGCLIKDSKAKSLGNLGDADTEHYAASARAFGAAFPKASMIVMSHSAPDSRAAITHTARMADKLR

[5] = biological target: T1, NDM-1; assay: biochemical
Procedure: (§12) 1.4.1 Differential Scanning Fluorimetry (DSF)
(§13) DSF was performed using the Applied Biosystems QuantStudio 5 thermal cycler (Thermo
(§14) Fisher Scientific). Results were analysed and Tm determined with the Applied Biosystems
(§15) Protein Thermal Shift Software v1.4 and Tm values determined by the software. DSF was
(§16) conducted in sealed MicroAmp Optical 384-Well Reaction Plates (Thermo Fisher Scientific).
(§17) at a temperature ramp rate of 0.03 °C/s. For compound-protein interaction studies, a final
(§18) containing 5X SYPRO Orange (Thermo Fisher Scientific), 50 mM HEPES and 5%(v/v)
(§19) DMSO-d6. The final reaction volume was 20 µL per well. All DMSO compound stocks used
(§20) for DSF experiments were freshly prepared from solid stocks. All DSF measurements were
(§21) carried out in triplicate and the Tm reported is the mean value and the error is the standard
(§22) deviation. For all compounds tested, a no protein control run was included to see potential
(§23) changes in fluorescence resulting from a compound-dye interaction.

[6] = biological target: T2, NDM-1 in E. coli NDM-1 (Klebsiella pneumoniae, UniProt C7C422); assay: cell-based; details: E. coli NDM-1, nitrocefin
T2 sequence (C7C422 29-270 limits assumed): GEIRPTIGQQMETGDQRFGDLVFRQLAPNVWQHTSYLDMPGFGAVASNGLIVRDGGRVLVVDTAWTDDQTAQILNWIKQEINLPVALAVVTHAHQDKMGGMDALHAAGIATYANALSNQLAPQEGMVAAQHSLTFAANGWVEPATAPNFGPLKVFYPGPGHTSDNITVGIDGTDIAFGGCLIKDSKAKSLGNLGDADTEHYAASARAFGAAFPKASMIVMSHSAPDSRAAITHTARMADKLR
Procedure: (§24) shaking at 180 rpm for 18 hours. The overnight suspensions were subcultured (1:100) in fresh LB and incubated to yield an OD600 of 0.55-0.60. The were harvested and pelleted at 3500  g for 15 minutes at 4 °C. The pellets were washed with PBS and pelleted again under the same
(§25) conditions. The bacteria were then stored as pellets at 4 C until required for the assay and to
(§26) be used within 5 hours. To prepare the bacteria fo r the assay, a pellet was resuspended in an
(§27) adjusted volume of fresh PBS to achieve an OD600 ≈ 5.0 and then kept at 4 C for 1 hr before
(§28) being used. The bacteria were then diluted to OD600 ≈ 2.0 in fresh PBS and used immediately.
(§29) inhibitor control, and one row of Bacteria Buffer B (50 µL) which served as a no-bacteria
(§30) control (providing five rows in total). Bacteria stock (OD600 ≈ 2.0, 40 µL, final concentration
(§31) of bacteria in well = OD600 ≈ 0.8) was added to each well of the first four rows, the plate was
(§32) sealed, and the samples then pre-incubated for 60 min under either ‘dark’ or ‘light’ conditions
(§33) Under ‘dark’ conditions, the plate was left sealed in a
(§34) substrate in well = 100 µM) was conducted manually and then the plate immediately resealed
(§35) substrate had been completely consumed. Method conditions are as follows: cycle time = 100

[7] = biological target: T2, NDM-1 in E. coli NDM-1; details: E. coli NDM-1, 450 nm, 60 J cm^-2
Procedure: as §24, §25, §26, §27, §28, §29, §30, §31, §32, §33, §34, §35

[8] = Chromatographic LogD measurement; details: reversed-phase HPLC, Eclipse Plus C18 column, pH 7.4
Procedure: ChromLogD measurements were adapted from a previously reported procedure.3 The reversed
phase HPLC measurements were measured using an Agilent 1100 Series, equipped with an
Eclipse Plus C18 column 4.6 x 50 mm, using a gradient of 50 mM ammonium acetate/CH3CN
0 – 100% over 10 min. The mobile phase was adjusted to pH = 7.4 using concentrated sodium
The retention times (log k’) of seven commercially available compounds which cover the log
D range from -0.02 to 3.18 (theophylline, 5-phenyl-1H-tetrazole, benzimidazole, colchicine,
acetophenone, indole, propiophenone, butyrophenone, and benzophenone) were calculated
using the below equation, where tR is the retention time of the compound and t0 is the column
dead time, measured by injecting uracil (0.853 min).
The average retention times (tR) of two consecutive injections of sample were used to calculate
the log k’ values, which were then used to create the standard curve (Figure S1).

[9] = test system: seven mammalian cell lines; details: panel of seven mammalian cell lines including HepG2
[10] = test system: HeLa
[11] = test system: HaCaT
[12] = test system: HepG2
[13] = test system: hTERT RPE-1
[14] = test system: RAW264.7; details: RAW
[15] = test system: HEK293T
[16] = biological target: HDAC1 (Homo sapiens, UniProt Q13547); assay: HDAC1 deacetylation assay (H3K9Ac, mass spectrometry); details: 100 µM compound, 3 hours, 37°C
Sequence of HDAC1 (Q13547 whole entry, species assumed): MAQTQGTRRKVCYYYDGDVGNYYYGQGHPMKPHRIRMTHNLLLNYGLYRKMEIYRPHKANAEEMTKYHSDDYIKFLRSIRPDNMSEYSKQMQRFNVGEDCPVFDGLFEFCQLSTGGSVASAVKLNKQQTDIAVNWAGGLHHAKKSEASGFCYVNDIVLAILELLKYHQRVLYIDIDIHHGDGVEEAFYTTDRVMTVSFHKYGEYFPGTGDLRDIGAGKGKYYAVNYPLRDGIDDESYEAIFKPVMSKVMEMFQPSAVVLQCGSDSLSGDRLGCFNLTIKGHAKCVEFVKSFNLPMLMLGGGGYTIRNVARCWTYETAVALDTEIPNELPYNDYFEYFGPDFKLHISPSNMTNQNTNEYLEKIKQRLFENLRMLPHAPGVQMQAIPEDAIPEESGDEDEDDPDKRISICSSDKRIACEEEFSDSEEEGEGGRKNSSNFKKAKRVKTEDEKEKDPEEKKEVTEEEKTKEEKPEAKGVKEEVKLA
Procedure: 1.7.1 HDAC1 Assay conditions:
The results of the assay were analysed using HRMS.
HDAC1 was included (-HDAC1).

[17] = biological target: T1, NDM-1; details: for Effect on melting temperature of NDM-1: in words
Procedure: as §12, §13, §14, §15, §16, §17, §18, §19, §20, §21, §22, §23

[18] = test system: HCT116
[19] = biological target: T1, NDM-1; assay: biochemical; details: recombinant NDM-1, nitrocefin
[20] = organic photosensitizers; cited from earlier work
[21] = test system: E. coli empty; details: dark and light samples equivalent
[22] = biological target: T1, NDM-1; format: biochemical; details: mixture of NDM-1 and BSA, 0-1000 μM
Procedure: 1.8 Protein degradation via SDS-PAGE […]
were made at 10 mM in DMSO and then diluted to the appropriate concentration (1 mM – 10 µM) in 50 mM HEPES pH 7.5. The enzyme stocks (10 µM) were made up in 50 mM HEPES pH 7.5. The compound and enzyme stocks were mixed 1:1 and then pre -incubated for 10 min […]
‘light’ conditions the samples were transferred to a 96 well plate to provide irradiation. For a […]
(208 s, 96 mW cm-2). For a dose of 60 J cm-2 the plate was irradiated immediately (624 s, 96 […]
An aliquot of each sample was mixed with SDS-sample buffer (NuPAGE® LDS Sample buffer 4x) and heated to 95°C for 3 min. The samples were loaded on to the gel (NuPAGE® 4-12% Bis-tris gel) and run at 200V/125 mA for 30 min (1 gel per Gel box) or 60 min (2 gels per Gel box). SDS-PAGE gels were imaged using a Cytiva Amersham ImageQuant™ 800.
Densitometry of gel bands was measured and processed using Fiji (ImageJ).
1.8.3 BSA+NDM-1 selectivity experiment […]
nm, 20 J cm-2). Lane 1: Ladder; Lane 2: NDM-1 – no compound control (dark); Lane 3: BSA – no compound control (dark); Lane 4: NDM-1 + BSA - no compound control (dark); Lane 5: NDM-1 + BSA + 1 eq. compound (dark); Lane 6: NDM-1 + BSA + 10 eq. compound (dark); Lane 7: NDM-1 + BSA + 100 eq. compound (dark); Lane 8: NDM-1 + BSA - no compound control (light); Lane 9: NDM-1 + BSA + 1 eq. compound (light); Lane 10: NDM-1 + BSA + 10 eq. compound (light); Lane 11: NDM-1 + BSA + 100 eq. compound (light). […]
the dark (left) and under light irradiation (450 nm, 20 J cm-2).

[23] = biological target: T1, NDM-1
Procedure: In addition, intact mass spectrometry was performed on the samples prepared for SDS-PAGE.

[24] = compound 5 μM, light 450 nm, 60 J cm^-2
[25] = compound 10 μM, light 450 nm, 60 J cm^-2
[26] = compound 20 μM, light 450 nm, 60 J cm^-2
[27] = compound 40 μM, light 450 nm, 60 J cm^-2
[28] = compound 80 μM, light 450 nm, 60 J cm^-2
[29] = compound 160 μM, light 450 nm, 60 J cm^-2
[30] = read-out: Change in melting temperature (ΔT) of NDM-1

C[C@@H](O)[C@H]1C(=O)N2C(C(=O)O)=C(S[C@@H]3CN[C@H](C(=O)N(C)C)C3)[C@H](C)[C@H]12 [Meropenem, meropenem]
Accumulation ([1]; 75 μM, 10 min): 150 nM/OD600
Accumulation ([1]; 75 μM, 10 min, listed as meropenem trihydrate): 0 nM/OD600
Accumulation ([2]; 75 μM, 10 min): not detectable

Cl.Cl.Nc1cccc(-c2cc(C(=O)O)nc(C(=O)O)c2)c1 [N1, 4-(3-amino-phenyl) dipicolinic acid]
Fold change in Meropenem MIC ([3]; compound 5 μM, dark): 0 fold
Fold change in Meropenem MIC [3, 24]: 0.66 fold
Fold change in Meropenem MIC ([3]; compound 10 μM, dark): 0 fold
Fold change in Meropenem MIC [3, 25]: 0.66 fold
Fold change in Meropenem MIC ([3]; compound 20 μM, dark): 0 fold
Fold change in Meropenem MIC [3, 26]: 1.3 fold
Fold change in Meropenem MIC ([3]; compound 40 μM, dark): 0.66 fold
Fold change in Meropenem MIC [3, 27]: 2.0 fold
Fold change in Meropenem MIC ([3]; compound 80 μM, dark): 2.6 fold
Fold change in Meropenem MIC [3, 28]: 6.6 fold
Fold change in Meropenem MIC ([3]; compound 160 μM, dark): 35 fold
Fold change in Meropenem MIC [3, 29]: 43 fold
Fold improvement in NDM-1 inhibition, light vs dark [4]: no enhancement of potency
Kd [5]: 35 µM
ΔTm at 4 µM [5, 30]: -0.6 °C
ΔTm at 16 µM [5, 30]: -3.4 °C
ΔTm at 63 µM [5, 30]: -8.8 °C
IC50 ([6]; IC50(dark), dark): 13.2 µM and 13 µM
IC50 ([6]; IC50(light), light 450 nm, 60 J cm^-2): 11.1 µM
Fold improvement in potency, light vs dark [7]: no change in potency
chromatographic logD [8]: -1.32
Cytotoxicity (no cytotoxicity up to) [9]: > 50 µM
LD50 ([10]; 24 h): > 50 µM
LD50 ([10]; 48 h): > 50 µM
LD50 ([11]; 24 h): > 50 µM
LD50 ([11]; 48 h): > 50 µM
LD50 ([12]; HepG2, 24 h): > 50 µM
LD50 ([12]; HepG2, 48 h): > 50 µM
LD50 ([13]; RPE1, 24 h): > 50 µM
LD50 ([13]; RPE1, 48 h): > 50 µM
LD50 ([14]; 24 h): > 50 µM
LD50 ([14]; 48 h): > 50 µM
LD50 ([15]; 24 h): > 50 µM
LD50 ([15]; 48 h): > 50 µM
Accumulation ([1]; 320 μM, 1 h): 609 nM/OD600
Accumulation ([2]; 320 μM, 1 h): 731 nM/OD600
Inhibition of HDAC1 [16]: do not inhibit
Effect on melting temperature of NDM-1 [17]: destabilize the protein in a dose-dependent manner
LD50 ([18]; HCT116, 24 h): > 50 µM
LD50 ([18]; HCT116, 48 h): > 50 µM
IC50 ([19]; IC50(dark), dark): 3.2 ± 0.08 µM
IC50 ([19]; IC50(light), light 450 nm, 20 J cm^-2): 3.1 µM

CN[C@@H]1C[C@H]2O[C@@](C)([C@@H]1OC)n1c3ccccc3c3c4c(c5c6ccccc6n2c5c31)C(=O)NC4 [Staurosporine]
LD50 ([10]; 24 h): 0.05 µM
LD50 ([10]; 48 h): 0.02 µM
LD50 ([11]; 24 h): 0.05 µM
LD50 ([11]; 48 h): 0.01 µM
LD50 ([12]; HepG2, 24 h): 0.3 µM
LD50 ([12]; HepG2, 48 h): 0.09 µM
LD50 ([13]; RPE1, 24 h): 0.01 µM
LD50 ([13]; RPE1, 48 h): 0.01 µM
LD50 ([14]; 24 h): 0.03 µM
LD50 ([14]; 48 h): 0.01 µM
LD50 ([15]; 24 h): 0.07 µM
LD50 ([15]; 48 h): 0.01 µM
LD50 ([18]; HCT116, 24 h): 0.08 µM
LD50 ([18]; HCT116, 48 h): 0.02 µM

C=CC1=C(C)c2cc3[nH]c(cc4nc(cc5[nH]c(cc1n2)c(C)c5CCC(=O)O)C(CCC(=O)O)=C4C)c(C)c3C=C [protoporphyrin IX]
Excited state lifetime [20]: 13 ns

[Ru(2,2'-bipyridine)2(1-(4-(3-aminophenyl)pyridine-2,6-dicarboxylic acid)-imidazo[4,5,f][1,10]phenanthroline)](PF6)2 [Ru1]
MIC ([3]; E. coli NDM-1, dark and light samples equivalent): >160 µM
Fold change in Meropenem MIC ([3]; compound 5 μM, dark): 0 fold
Fold change in Meropenem MIC [3, 24]: 0.66 fold
Fold change in Meropenem MIC ([3]; compound 10 μM, dark): 0 fold
Fold change in Meropenem MIC [3, 25]: 0.66 fold
Fold change in Meropenem MIC ([3]; compound 20 μM, dark): 0.66 fold
Fold change in Meropenem MIC [3, 26]: 2.0 fold
Fold change in Meropenem MIC ([3]; compound 40 μM, dark): 0.66 fold
Fold change in Meropenem MIC [3, 27]: 5.3 fold
Fold change in Meropenem MIC ([3]; compound 80 μM, dark): 2.6 fold
Fold change in Meropenem MIC [3, 28]: 19 fold
Fold change in Meropenem MIC ([3]; compound 160 μM, dark): 9 fold and 9.3 fold
Fold change in Meropenem MIC [3, 29]: 53 fold
Fold improvement in potency, light vs dark [7]: 30 fold
MIC [21]: >160 µM
Degradation of NDM-1 vs BSA (band intensity) ([22]; dark): Both proteins were unaffected
Degradation of NDM-1 vs BSA (band intensity) ([22]; light 450 nm, 20 J cm^-2): only NDM-1 was selectively modified and degraded; also recorded: Selective degradation of NDM-1 over BSA
Modification of NDM-1 (intact mass) ([23]; 100 equiv, without irradiation): no change
Modification of NDM-1 (intact mass) ([23]; one equivalent, light 450 nm, 20 J cm^-2): considerable modification to the protein
Inhibition of HDAC1 [16]: do not inhibit; also recorded: no off-target inhibition
K d,app from DSF (ΔT vs concentration) ([17]; apparent Kd): 7.4 µM
Change in melting temperature (ΔT) of NDM-1 ([17]; compound 4 μM): –3.9 °C
Change in melting temperature (ΔT) of NDM-1 ([17]; compound 16 μM): –6.8 °C
Change in melting temperature (ΔT) of NDM-1 ([17]; compound 63 μM): –13 °C
Effect on melting temperature of NDM-1 [17]: destabilize the protein in a dose-dependent manner

porfimer sodium
Excited state lifetime [20]: 14 ns
